Experimental data taken from patent US5326879A, “Indole derivatives” (priority 1991, dated 1994).
Read-outs that look alike come from different tables or passages of the source.

Tests used:
[1] = biological target: T1, H^+ /K^+ ATPase (Sus scrofa, UniProt P19156); assay: H^+ /K^+ ATPase Inhibitory Activity Assay; type: biochemical, pig; conditions: for inhibition at 20 µg/mL: 20 μg/ml; for inhibition at 10 µg/mL / inhibition at 5 µg/mL: read-out: H^+ /K^+ ATPase % Inhibition
T1 construct: prepared from the stomach of pig; from tissue; host or cells: stomach of pig
Description: The inhibitory activity was determined in the following manner using H^+ /K^+ ATPase prepared from the stomach of pig.
H^+ /K^+ ATPase dilute solution (100 μl, 50 μg as protein) was added to PIPES-tris (pH 6.2) buffer solution (440 μl) containing 4 mM magnesium chloride and 20 mM potassium chloride. Further, 0.1% ethanol solution of nigericin (5 μl) was added. To the solution was added dimethyl sulfoxide (5 μl) and the mixture was incubated at 37° C. for 30 minutes. Then 10 mM PIPES-tris buffer solution (450 μl) containing 4 mM ATP disodium was added to initiate the reaction. 30 minutes later, 50% trichloroacetic acid (1 ml) was added to cease the reaction. […] On the other hand, a similar determination was carried out in the absence of potassium chloride, at which the reading of the absorbance is taken as C2. […] In that case, the readings of the absorbance in the presence and absence of potassium chloride are taken as T1 and T2, respectively.
% Inhibition (I) of the inhibiting substance (test compound) is calculated by the following equation.

[2] = background statement; cited from earlier work

T1 sequence (P19156 2-1034 limits assumed): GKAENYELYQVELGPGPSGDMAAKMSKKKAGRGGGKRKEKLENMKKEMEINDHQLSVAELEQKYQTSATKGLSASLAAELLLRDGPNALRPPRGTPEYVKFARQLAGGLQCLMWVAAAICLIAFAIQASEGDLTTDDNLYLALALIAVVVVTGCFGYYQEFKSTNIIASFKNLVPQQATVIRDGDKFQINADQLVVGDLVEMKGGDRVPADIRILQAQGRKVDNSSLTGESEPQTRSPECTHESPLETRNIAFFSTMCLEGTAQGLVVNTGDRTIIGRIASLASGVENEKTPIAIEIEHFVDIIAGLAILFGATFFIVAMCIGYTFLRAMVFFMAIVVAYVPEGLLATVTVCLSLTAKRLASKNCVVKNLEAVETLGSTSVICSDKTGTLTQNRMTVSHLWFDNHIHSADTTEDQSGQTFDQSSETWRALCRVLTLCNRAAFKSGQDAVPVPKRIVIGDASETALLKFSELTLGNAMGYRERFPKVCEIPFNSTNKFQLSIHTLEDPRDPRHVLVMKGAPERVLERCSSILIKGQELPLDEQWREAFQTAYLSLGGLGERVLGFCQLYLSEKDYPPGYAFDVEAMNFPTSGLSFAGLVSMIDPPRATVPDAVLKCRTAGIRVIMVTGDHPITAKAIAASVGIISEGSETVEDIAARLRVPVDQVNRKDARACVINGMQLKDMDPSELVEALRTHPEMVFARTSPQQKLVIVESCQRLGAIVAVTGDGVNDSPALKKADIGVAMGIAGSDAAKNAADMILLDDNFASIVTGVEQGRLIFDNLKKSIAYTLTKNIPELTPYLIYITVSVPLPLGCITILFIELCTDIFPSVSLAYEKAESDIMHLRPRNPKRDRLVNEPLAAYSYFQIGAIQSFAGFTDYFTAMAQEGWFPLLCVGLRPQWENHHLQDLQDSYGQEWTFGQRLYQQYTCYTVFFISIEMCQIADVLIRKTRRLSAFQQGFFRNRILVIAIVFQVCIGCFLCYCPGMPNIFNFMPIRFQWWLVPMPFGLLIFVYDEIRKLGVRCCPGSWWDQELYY
T1 sequence (P18434 whole entry partner): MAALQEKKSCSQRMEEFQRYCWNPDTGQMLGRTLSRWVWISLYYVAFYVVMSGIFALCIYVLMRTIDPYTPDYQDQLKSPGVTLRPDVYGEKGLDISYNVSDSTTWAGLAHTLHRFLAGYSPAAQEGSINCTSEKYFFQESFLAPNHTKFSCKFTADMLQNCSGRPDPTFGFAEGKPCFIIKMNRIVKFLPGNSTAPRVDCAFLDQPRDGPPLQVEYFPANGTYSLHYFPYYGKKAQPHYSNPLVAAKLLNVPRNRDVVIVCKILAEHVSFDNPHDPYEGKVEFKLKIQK

Row | SMILES | inhibition at 20 µg/mL [1] [%] | inhibition at 10 µg/mL ([1]; 10 μg/ml) [%] | further results
1 | c1ccc2c(CCN3CCCCC3)c(CCCCCCc3[nH]c4ccccc4c3CCN3CCCCC3)[nH]c2c1 [Example 1, 3,3'-Di(2-piperidinoethyl)-2,2'-hexamethylenediindole] | 5 | – | –
2 | c1ccc2[nH]c(CCCCCCc3[nH]c4ccccc4c3CCN3CCCCC3)cc2c1 [Example 2, 3-(2-Piperidinoethyl)-2,2'-hexamethylenediindole] | – | 84 | –
3 | c1ccc(CCNCCc2c(CCCCc3cc4ccccc4[nH]3)[nH]c3ccccc23)cc1 [Example 3, 3-(2-Phenethylaminoethyl)-2,2'-tetramethylenediindole] | – | 97 | –
4 | c1ccc2[nH]c(CCCCCCCCc3[nH]c4ccccc4c3CCN3CCCCC3)cc2c1 [Example 4, 3-(2-Piperidinoethyl)-2,2'-octamethylenediindole] | – | 91 | –
5 | c1ccc2[nH]c(CCCCc3[nH]c4ccccc4c3CCN3CCOCC3)cc2c1 [Example 5, 3-(2-Morpholinoethyl)-2,2'-tetramethylenediindole] | 68 | – | –
6 | c1ccc(CNCCc2c(CCCCc3[nH]c4ccccc4c3CCNCc3ccccc3)[nH]c3ccccc23)cc1 [Example 7, 3,3'-Di(2-benzylaminoethyl)-2,2'-tetramethylenediindole] | 76 | – | –
7 | c1ccc(CNCCc2c(CCCCc3cc4ccccc4[nH]3)[nH]c3ccccc23)cc1 [Example 8, 3-(2-Benzylaminoethyl)-2,2'-tetramethylenediindole] | 100 | – | –
8 | c1ccc(CCNCCc2c(CCCCc3[nH]c4ccccc4c3CCNCCc3ccccc3)[nH]c3ccccc23)cc1 [Example 13, 3,3'-Di(2-phenethylaminoethyl)-2,2'-tetramethylenediindole] | – | – | inhibition at 5 µg/mL ([1]; 5 μg/ml): 74%
9 | c1ccc2[nH]c(CCCCc3[nH]c4ccccc4c3CCNCCc3c[nH]c4ccccc34)cc2c1 [Example 16, 3-(2-(2-(3-Indolyl)ethylamino)ethyl)-2,2'-tetramethylenediindole] | – | – | inhibition at 5 µg/mL ([1]; 5 μg/ml): 71%
10 | CN(CCc1c(CCCCc2[nH]c3ccccc3c2CCN(C)Cc2ccccc2)[nH]c2ccccc12)Cc1ccccc1 [Example 17, 3,3'-Di(2-(N-methylbenzylamino)ethyl)-2,2'-tetramethylenediindole] | – | – | inhibition at 5 µg/mL [1]: 38%
11 | CN(CCc1c(CCCCc2cc3ccccc3[nH]2)[nH]c2ccccc12)Cc1ccccc1 [Example 18, 3-(2-(N-Methylbenzylamino)ethyl)-2,2'-tetramethylenediindole] | – | – | inhibition at 10 µg/mL [1]: 100%
12 | c1ccc(CCCNCCc2c(CCCCc3[nH]c4ccccc4c3CCNCCCc3ccccc3)[nH]c3ccccc23)cc1 [Example 19, 3,3'-Di(2-(3-phenylpropylamino)ethyl)-2,2'-tetramethylenediindole] | – | 98 | –
13 | COc1ccc2[nH]c([S+]([O-])Cc3ncc(C)c(OC)c3C)nc2c1 (stereo not shown) [Omeprazole, omeprazole] | – | – | occurrence of side effect (omeprazole) [2]: occurrence of carcinoid
